# According to patent publication US9387214B2, “Method of identifying therapies for pulmonary hypertension” (United Therapeutics Corporation, priority 2012, dated 2016):
# “Also recorded” adds a separate entry of the source.
# Tested on: human erythrocytes
# Assay: Erythrocyte ATP release
# Assay type: cell-based
# Description: Erythrocyte ATP release was measured in both the absence and presence of (a) the PGI2 agonist, treprostinil in the form of UT-15 or its vehicle, saline, and (b) alone or in combination with the selective PDE5 inhibitor, zapranist (ZAP, 10 μM).
Structure (SMILES),"potentiation of UT-15-induced increases in ATP release (FIG. 2, concentration not printed in legend)","potentiation of UT-15-induced ATP release (ZAP 10 μM pretreatment, UT-15 1 uM, P<0.05)","ATP release from erythrocytes (UT-15 30 nM alone, n=7)","ATP release from erythrocytes (UT-15 30 nM, cells pretreated with ZAP 10 μM, n=7)","ATP release from erythrocytes (UT-15 100 nM alone, n=7)","ATP release from erythrocytes (UT-15 100 nM, cells pretreated with ZAP 10 μM, n=7)","ATP release from erythrocytes compared to controls (UT-15 1 uM alone, n=7)","ATP release from human erythrocytes (UT-15 alone at 10 to 100 nM, FIG. 3)","ATP release from human erythrocytes (UT-15 alone, FIG. 2, concentration not printed in legend)"
CCCOc1ccccc1-c1nc2nn[nH]c2c(=O)[nH]1 [zapranist],potentiated,potentiated,,,,,,,
"CCCCC[C@H](O)CC[C@@H]1[C@H]2Cc3cccc(OCC(=O)O)c3C[C@H]2C[C@H]1O [UT-15, treprostinil]",,,no ATP release was detected,induce a response; also recorded: ATP release was stimulated,no ATP release was detected,induce a response; also recorded: ATP release was stimulated,increase in ATP release,does not stimulate ATP release,stimulates increases in ATP release
